For data set [1] the following is noted: humans, cited from earlier work.
Data set [2] concerns the target T1, BRAF (Homo sapiens, UniProt P15056).
T1 construct: measure selectivity of compounds against native kinases detected in lung cancer proteomes; endogenous in cells; host or cells: A549 and H82 lung cancer cell proteomes
Nature of the data set: ATP acyl phosphate chemical proteomics in lung cancer cell proteomes. Format: binding. Here is the method:
(§1) LC-MS analysis of SILAC samples using ATP acyl phosphates. Quantitative chemoproteomics was performed as previously described (Franks et al., 2017; McCloud et al., 2018).
(§2) Computational Methods. Data for A549 and H82 cell lines were searched with IP2 and manually validated using the methods previously described (Franks et al., 2017). Data for Desthiobiotin-tagged ATP acyl-phosphate probes and ATP competitive peptides were compared and clustered. Ritanserin and ketanserin inhibition profiles were compared using SILAC ratios and normalized to DMSO.
(§3) Based on previous chemical proteomics (Franks, 2017), it was hypothesized that ritanserin is functioning as a kinase inhibitor to mediate cytotoxicity in the lung cancer cell models. […] For these studies, NSCLC and SCLC cells were cultured in isotopically light and heavy amino acids to enable quantitative chemical proteomics (Chang. 2015) by stable isotope labeling with amino acids in cell culture (SILAC, FIG. 17A). […] After probe labeling, light and heavy proteomes were combined, digested with trypsin protease, and desthiobiotin-modified peptides enriched by avidin affinity chromatography and analyzed by LC-MS/MS to identify and quantify isotopically tagged active-site peptides from native kinases as previously described(Franks, 2017) (FIG. 17A).
To further confirm that ritanserin is a CRAF inhibitor, a targeted parallel reaction monitoring method (PRM) was developed to evaluate compound activity against CRAF and other members of the RAF family (ARAF and BRAF). Targeted PRM was needed because of the low abundance of CRAF compared with ARAF and BRAF). […] Ritanserin activity was also measured against RAF kinases in A549 proteomes using the targeted LC-MS method. […] The data further support previous findings that this RAF member is enriched in SCLC cells (REF).

Data set [3] addresses T2, TLK2 (Homo sapiens, UniProt Q86UE8).
T2 construct: measure selectivity of compounds against native kinases detected in lung cancer proteomes; endogenous in cells; host or cells: A549 and H82 lung cancer cell proteomes
Described as above. Format: binding. Conditions: 100 μM; A549 and H82 proteomes. Here is the method: as §1, §2, §3

This is an account of results in patent US12643867B2, “Compositions and uses thereof” (University of Virginia Patent Foundation, priority 2017, dated 2026).

T1 sequence (P15056 whole entry): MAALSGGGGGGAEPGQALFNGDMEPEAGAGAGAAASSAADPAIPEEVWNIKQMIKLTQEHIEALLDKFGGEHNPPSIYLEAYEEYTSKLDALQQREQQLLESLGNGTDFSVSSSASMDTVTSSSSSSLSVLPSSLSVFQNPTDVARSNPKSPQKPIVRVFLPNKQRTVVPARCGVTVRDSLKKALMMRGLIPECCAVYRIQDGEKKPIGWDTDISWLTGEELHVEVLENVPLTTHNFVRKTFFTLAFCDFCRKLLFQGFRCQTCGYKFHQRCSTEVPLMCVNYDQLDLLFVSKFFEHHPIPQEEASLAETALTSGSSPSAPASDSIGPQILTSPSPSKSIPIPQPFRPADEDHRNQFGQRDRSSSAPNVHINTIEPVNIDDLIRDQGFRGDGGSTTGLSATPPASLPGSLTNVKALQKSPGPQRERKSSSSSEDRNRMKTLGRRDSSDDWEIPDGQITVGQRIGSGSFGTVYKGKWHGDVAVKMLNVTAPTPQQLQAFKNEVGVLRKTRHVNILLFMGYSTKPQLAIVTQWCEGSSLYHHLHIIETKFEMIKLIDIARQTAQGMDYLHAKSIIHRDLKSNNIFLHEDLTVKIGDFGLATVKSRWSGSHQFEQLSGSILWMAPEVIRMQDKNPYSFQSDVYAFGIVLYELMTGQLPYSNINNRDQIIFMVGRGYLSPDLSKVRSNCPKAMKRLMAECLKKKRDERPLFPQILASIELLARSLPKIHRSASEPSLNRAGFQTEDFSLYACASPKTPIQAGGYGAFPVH
T2 sequence (Q86UE8 whole entry): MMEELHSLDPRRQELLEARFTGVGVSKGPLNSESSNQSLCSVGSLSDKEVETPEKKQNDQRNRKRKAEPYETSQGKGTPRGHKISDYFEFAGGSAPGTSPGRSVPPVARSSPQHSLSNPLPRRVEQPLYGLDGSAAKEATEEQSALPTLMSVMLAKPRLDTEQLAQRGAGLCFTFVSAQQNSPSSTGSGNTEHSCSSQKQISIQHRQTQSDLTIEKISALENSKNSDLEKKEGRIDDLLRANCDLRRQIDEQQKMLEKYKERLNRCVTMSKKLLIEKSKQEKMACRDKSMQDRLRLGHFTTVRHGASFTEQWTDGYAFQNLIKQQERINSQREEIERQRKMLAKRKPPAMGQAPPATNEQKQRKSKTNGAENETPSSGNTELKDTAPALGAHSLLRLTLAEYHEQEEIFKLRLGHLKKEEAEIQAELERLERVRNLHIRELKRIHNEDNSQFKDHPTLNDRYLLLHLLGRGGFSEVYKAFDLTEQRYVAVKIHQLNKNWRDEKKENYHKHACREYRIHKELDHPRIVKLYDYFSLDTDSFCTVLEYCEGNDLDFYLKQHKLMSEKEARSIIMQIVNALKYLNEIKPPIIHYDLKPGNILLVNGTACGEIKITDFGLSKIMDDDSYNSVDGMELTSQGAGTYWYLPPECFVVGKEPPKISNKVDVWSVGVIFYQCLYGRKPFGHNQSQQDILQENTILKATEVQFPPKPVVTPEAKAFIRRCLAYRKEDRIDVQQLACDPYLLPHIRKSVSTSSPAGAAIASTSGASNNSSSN

For the molecule `Cc1nc2sccn2c(=O)c1CCN1CCC(=C(c2ccc(F)cc2)c2ccc(F)cc2)CC1` [Ritanserin], the “adverse side effects” value in data set [1] is “lack of adverse side effects”. Further, the half-life in data set [1] (oral) was around 40 h. Further, the “inhibition by three-fold change cutoff” value in data set [2] (100 μM, A549 and H82 proteomes) is reported as “BRAF inhibition”. Further, in data set [2] (H82 proteomes), the “activity by targeted PRM” value is recorded as “negligible activity”. Also, the “kinase target by SILAC ratio criterion” value in data set [3] was “most potent targets”.
